Measurements as given in US8778974B2, “Trisubstituted 1,2,4 triazoles” (Janssen Pharmaceutica NV, priority 2008, dated 2014).

Molecular target: T1, hα7-wt nAChR-expressing GH4Cl cells (Homo sapiens, UniProt P36544)
T1 construct: expressed in transfected cells
Test: Patch-clamp current recording (whole-cell), potentiation of choline 1 mM response, PAM type
Type: cell-based
Set-up: key to Pam type: Type 0 compounds minimally enhance the effect size of the current elicited by 1 mM choline.; Type 1 compounds enhance the effect size of the current elicited by 1 mM choline but minimally alter the kinetics of the receptor.; Type 2 compounds enhance the effect size of the current elicited by 1 mM choline while reducing the rate and/or the extent of desensitization.; Type 3 compounds enhance the effect size of the current elicited by 1 mM choline. When tested at higher concentrations up to 10 μM they completely inhibit desensitization, in particular a 1 mM choline application of 250 milliseconds.; Type 4 compounds allow for an initial desensitization of the receptor followed by a re-opening of the receptor during agonist application
Conditions: for EC50: according to Ex. D.2, "<5" = no top plateau reached at maximal concentration, read-out: Potency (pEC50) (converted); for Pam type: patch-clamp current recording, 1 mM choline
Protocol: The compounds of the present invention are classified as type 1-4, based on qualitative kinetic properties, as determined by whole-cell voltage-clamp recordings. This classification is based on the effect of an α7 PAM compound, as described hereinbefore, on the signal elicited by an agonist application. In particular, said agonist is choline at a concentration of 1 mM. In a preferred experimental setting, said α7 PAM compound and choline are simultaneously applied to the cell, as described hereinafter. Desensitization is defined as the closure of the receptor upon activation during the application of the agonist in whole-cell voltage-clamp electrophysiology measurements seen as the reduction of the […] current after initial activation by the agonist.
The definition of the PAM types 1-4 is described hereinafter: • Type 0 compounds minimally enhance the effect size of the current elicited by 1 mM choline. • Type 1 compounds enhance the effect size of the current elicited by 1 mM choline but minimally alter the kinetics of the receptor. In particular, the rate and the extent of desensitization, elicited by the agonist, is not affected. The compound-modulated response to 1 mM choline, therefore, is a close to linear scaling of the 1 mM choline response in absence of the α7 PAM compound. • Type 2 compounds enhance the effect size of the current elicited by 1 mM choline while reducing the rate and/or the extent of desensitization. • Type 3 compounds enhance the effect size of the current elicited by 1 mM choline. […] At low-potency concentrations of the α7 PAM compound, the agonist-induced activation, which is followed by desensitization, can still be separated from the compound-induced re-opening as an initial inward current-maximum. At higher potency concentrations of the α7 PAM compound, the re-opening occurs faster than the closure due to desensitization so that the initial current-maximum disappears.
Patch-clamp Current Recording
Patch-clamp recording from mammalian cells has provided a powerful means of assessing the function of membrane-bound proteins thought to be subunits of ligand-gated ion channels. Activation of such proteins by endogenous or exogenous ligands cause opening of a pore associated with the receptor through which ions flow down their electrochemical gradient. In the case of the hα7-wt nAChR-expressing GH4Cl recombinant cell line the preferential permeability to calcium of this receptor means that calcium flows into the cell upon activation by ACh, choline and other nicotinic ligands giving rise to a calcium current. Since this receptor rapidly desensitizes in the presence of agonist it is important an application system is used which is capable of very rapid switching of solutions (<100 ms) to prevent partial or full desensitisation of receptor responses coincident with the time of agonist application. Consequently, a second convenient technique to assess the enhancement of nicotinic efficacy is patch-clamp recording from hα7-wt nAChR-expressing GH4Cl cells coupled with a rapid-application system.
• a) Assay buffers • The external recording solution consisted of 152 mM NaCl, 5 mM KCl, 1 mM MgCl2, 1 mM Calcium, 10 mM HEPES; pH 7.3. The internal recording solution consisted of 140 mM CsCl, 10 mM HEPES, 10 mM EGTA, 1 mM MgCl2, pH 7.3. • b) Patch-clamp recording was carried out using a Patch-clamp amplifier (Multiclamp 700A, Axon Instruments, Calif., USA). hα7-wt nAChR-expressing GH4Cl cells were patch-clamp in the whole cell configuration (Hamill et al, 1981) with a borosilicate glass electrode of 1.5-3 MΩ tip resistance when filled with the internal recording solution. Recordings were made on cells with membrane resistance >500 MΩ and more preferably 1GΩ and series resistance <15 MΩ with at least 60% series resistance compensation. […]

T1 sequence (P36544 23-502): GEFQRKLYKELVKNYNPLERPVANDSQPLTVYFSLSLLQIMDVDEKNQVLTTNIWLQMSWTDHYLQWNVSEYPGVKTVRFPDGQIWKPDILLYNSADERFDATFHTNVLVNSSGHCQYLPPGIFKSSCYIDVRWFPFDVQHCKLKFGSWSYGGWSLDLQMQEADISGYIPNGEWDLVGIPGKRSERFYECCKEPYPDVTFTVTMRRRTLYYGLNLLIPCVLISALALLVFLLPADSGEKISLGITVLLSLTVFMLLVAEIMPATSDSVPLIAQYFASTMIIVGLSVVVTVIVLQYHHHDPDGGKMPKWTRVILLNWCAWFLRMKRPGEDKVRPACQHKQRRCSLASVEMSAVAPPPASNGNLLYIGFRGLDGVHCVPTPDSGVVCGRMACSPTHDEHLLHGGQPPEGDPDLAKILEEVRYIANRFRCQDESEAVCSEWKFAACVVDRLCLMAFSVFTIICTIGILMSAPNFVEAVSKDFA

| Compound | EC50 [nM] | Pam type |
| --- | --- | --- |
| CCOC(=O)CCc1nc(Nc2ccc(F)c(F)c2)nn1-c1ccc2c(c1)OCCO2 [E114] | 151 | – |
| CC[C@H](O)Cc1nc(Nc2cccc(C(F)(F)F)c2)nn1-c1ccnc(C)c1 [E204] | 562 | 0 |
| CC[C@H](O)Cc1nc(Nc2cccc(Cl)c2F)nn1-c1cc(C)nc(C)c1 [E172] | 302 | 2 |
| CNC(=O)CCc1nc(Nc2ccc(F)c(F)c2)nn1-c1ccc2c(c1)OCCO2 [E2, 3-[(3,4-Difluorophenyl)amino]-1-(2,3-dihydro-1,4-benzodioxin-6-yl)-N-methyl-1H-1,2,4-triazole-5-propanamide] | 1020 | 3 |
| Cc1ccc(-n2nc(Nc3ccc4c(c3)OC(F)(F)O4)nc2CCC(=O)N(C)C)cn1 [E117] | 191 | 4 |
| CN(C)C(=O)CCc1nc(Nc2cccc(OC(F)(F)F)c2)nn1-c1cccnc1 [E71] | 617 | 4 |
| CC[C@H](O)Cc1nc(Nc2cc(Cl)cc(OC)c2)nn1-c1ccnc(C)c1 [E206] | 170 | 4 |
| CN(C)C(=O)CCc1nc(Nc2ccc3c(c2)OC(F)(F)O3)nn1-c1ccc2c(c1)OCCO2 [E176] | 26.9 | 4 |
| COc1ccc(-n2nc(Nc3ccc(F)c(C(F)(F)F)c3)nc2CCC(=O)N(C)C)cc1 [E62] | 30.2 | 4 |
| COc1ccc(-n2nc(Nc3ccc(F)c(F)c3)nc2CCC(=O)N(C)C)cc1OC [E64] | 525 | 4 |
| CNC(=O)CCc1nc(Nc2ccc(F)c(F)c2)nn1-c1ccncc1 [E52] | > 30200 | – |
| CN(C)C(=O)CCc1nc(Nc2ccc(F)c(C(F)(F)F)c2)nn1-c1ccc2c(c1)OCCO2 [E77] | 39.8 | 4 |
| CCNc1cc(-n2nc(Nc3ccc(F)c(F)c3)nc2C[C@@H](O)CC)ccn1 [E136] | 155 | 3 |
| CNC(=O)CCc1nc(Nc2ccc(F)c(C(F)(F)F)c2)nn1-c1ccc(OC)cc1 [E44] | 661 | – |
| CN(C)C(=O)CCc1nc(Nc2ccc(F)c(F)c2)nn1-c1ccc2c(c1)OCCO2 [E3, 3-[(3,4-Difluorophenyl)amino]-1-(2,3-dihydro-1,4-benzodioxin-6-yl)-N,N-dimethyl-1H-1,2,4-triazole-5-propanamide] | 43.7 | 4 |
| Cc1cc(-n2nc(Nc3ccc(F)c(C(F)(F)F)c3)nc2CCO)ccn1 [E16] | 525 | – |
| O=C(CCc1nc(Nc2cccc(OC(F)(F)F)c2)nn1-c1cccnc1)N1CCCC1 [E78] | 309 | – |
| CNC(=O)CCc1nc(Nc2ccc(F)c(C(F)(F)F)c2)nn1-c1ccc2c(c1)OCCO2 [E55] | 525 | 4 |
| CNC(=O)CCc1nc(Nc2ccc(F)c(F)c2)nn1-c1ccc(OC)cc1 [E43] | 2000 | 2 |
| CN(C)C(=O)CCc1nc(Nc2ccc(F)c(F)c2)nn1-c1ccncc1 [E67] | 447 | 4 |
| CN(C)C(=O)CCc1nc(Nc2cccc(OC(F)(F)F)c2)nn1-c1ccncc1 [E69] | 324 | – |
| CN(C)C(=O)CCc1nc(Nc2ccc(F)c(C(F)(F)F)c2)nn1-c1cccnc1 [E72] | 339 | – |
| COc1ccc(-n2nc(Nc3ccc4c(c3)OC(F)(F)O4)nc2CCC(=O)N(C)C)cc1 [E178] | 36.3 | 4 |

| Compound | EC50 [nM] | Pam type |
| --- | --- | --- |
| CNC(=O)CCc1nc(Nc2ccc(F)c(C(F)(F)F)c2)nn1-c1ccc(OC)c(OC)c1 [E46] | 1020 | – |
| CN(C)C(=O)CCc1nc(Nc2cccc(OC(F)(F)F)c2)nn1-c1ccc2c(c1)OCCO2 [E170] | 39.8 | 4 |
| CN(C)C(=O)CCc1nc(Nc2ccc(F)c(C(F)(F)F)c2)nn1-c1ccncc1 [E68] | 105 | – |
| CNC(=O)CCc1nc(Nc2ccc(F)c(F)c2)nn1-c1cccnc1 [E48] | > 10000 | – |
| CC[C@H](O)Cc1nc(Nc2cc(F)cc(OC)c2)nn1-c1cc(C)nc(C)c1 [E190, (alphaS)-1-(2,6-dimethyl-4-pyridinyl)-alpha-ethyl-3-[(3-fluoro-5-methoxyphenyl)amino]-1H-1,2,4-triazole-5-ethanol] | 398 | 2 |
| COc1ccc(-n2nc(Nc3ccc(F)c(F)c3)nc2CCC(=O)N(C)C)cc1 [E63] | 60.3 | 4 |
| CN(C)C(=O)CCc1nc(Nc2cc(F)c(F)c(Br)c2)nn1-c1ccc2c(c1)OCCO2 [E151] | 38 | 4 |
| CNC(=O)Cc1nc(Nc2ccc(F)c(F)c2)nn1-c1ccc2c(c1)OCCO2 [E36] | 1740 | 4 |
| Cc1cc(-n2nc(Nc3cc(F)c(F)c(F)c3)nc2CCC(=O)N(C)C)cc(C)n1 [E264] | ~28.8 | – |
| CC[C@H](O)Cc1nc(Nc2ccc(OC)cc2)nn1-c1cc(C)nc(C)c1 [E203] | 1350 | 2 |
| Cc1ncccc1-n1nc(Nc2cccc(OC(F)(F)F)c2)nc1CCC(=O)N(C)C [E5, N,N-Dimethyl-1-(2-methyl-3-pyridinyl)-3-[[3-(trifluoromethoxy)phenyl]amino]-1H-1,2,4-triazole-5-propanamide] | 1170 | 4 |
| CC[C@H](O)Cc1nc(Nc2ccc(F)c(F)c2F)nn1-c1ccnc(C)c1 [E130, (alphaS)-alpha-ethyl-1-(2-methyl-4-pyridinyl)-3-[(2,3,4-trifluorophenyl)amino]-1H-1,2,4-triazole-5-ethanol] | 269 | 2 |
| COc1ccc(-n2nc(Nc3ccc(F)c(C(F)(F)F)c3)nc2CCC(=O)N(C)C)cc1OC [E65] | 70.8 | 4 |
| CCOC(=O)CCc1nc(Nc2ccc(F)c(C(F)(F)F)c2)nn1-c1ccc2c(c1)OCCO2 [E115] | 158 | – |
| CNC(=O)Cc1nc(Nc2ccc(F)c(F)c2F)nn1-c1cc(C)nc(C)c1 [E209] | 724 | 2 |
| CCOC(=O)CCc1nc(Nc2cccc(OC(F)(F)F)c2)nn1-c1cccnc1 [E108] | 1350 | – |
| Cc1cc(-n2nc(Nc3cccc(Cl)c3F)nc2CC(=O)NCC2CC2)cc(C)n1 [E154] | 219 | 2 |
| COc1ccc(-n2nc(Nc3cc(F)c(F)c(Br)c3)nc2CCC(=O)N(C)C)cc1 [E155] | 28.8 | 1 |
| CC[C@H](O)Cc1nc(Nc2cc(Cl)cc(OC)c2)nn1-c1cc(C)nc(C)c1 [E205, (alphaS)-3-[(3-chloro-5-methoxyphenyl)amino]-1-(2,6-dimethyl-4-pyridinyl)-alpha-ethyl-1H-1,2,4-triazole-5-ethanol] | 155 | 2 |
| O=C(CCc1nc(Nc2cccc(OC(F)(F)F)c2)nn1-c1cccnc1)N1CCC(O)C1 (stereo not drawn) [E79] | 1260 | – |
| CCNC(=O)Cc1nc(Nc2ccc3c(c2)OC(F)(F)O3)nn1-c1cc(C)ncc1C [E163] | 2510 | 4 |
| Cc1cc(-n2nc(Nc3ccc(F)c(F)c3)nc2CC(=O)NC2CCC2)cc(C)n1 [E169] | 295 | 2 |
| CC[C@H](O)Cc1nc(Nc2ccc(F)c(F)c2F)nn1-c1cc(C)nc(C)c1 [E127, (alphaS)-1-(2,6-dimethyl-4-pyridinyl)-alpha-ethyl-3-[(2,3,4-trifluorophenyl)amino]-1H-1,2,4-triazole-5-ethanol] | 269 | 2 |
